This passage reports EC50 results from patent US8871756B2 (Hoffmann-La Roche Inc., priority 2011, dated 2014).

Broadly, the EC50 is the concentration giving half of the maximal effect. High values mean a need for much substance, low ones an effect from little substance.

The structures appear in SMILES notation.

In the experiment the test system is RSV Long strain. Description: Viral cytopathic effect (CPE) assay, anti-RSV activity. It counts as cell-based, Respiratory Syncytial Virus. As to conditions: human respiratory syncytial virus, 144 h, RSV Long strain (ATCC); cell viability after 6 days, Cell Counting kit-8. In a few lines:
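Cells (6×10^3/well, DMEM with 10% FBS) were infected next day with RSV Long strain, at a dose giving approximately 80–90% CPE, alongside serial half-log compound dilutions. Viability was read after 6 days by CCK-8 absorbance at 450 nm (reference 630 nm), and EC50 was derived from it.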
(Cytopathic effects are the visible damage that an infection or toxin causes in cultured cells.)
With `Cc1ccc2nc(N3CCS(=O)(=O)c4ccccc4C3)cc(NCCC(N)C(F)(F)F)c2c1` (stereo not drawn) [Example 42-1, N^˜1^˜-[2-(1,1-Dioxido-2,3-dihydro-1,4-benzothiazepin-4(5H)-yl)-6-methylquinolin-4-yl]-4,4,4-trifluorobutane-1,3-diamine], the EC50 was found to be 8.95 µM. For the molecule `CCNC1(CNc2cc(N3CCS(=O)(=O)c4ccccc4C3)nc3ccc(C)cc23)COC1` [Example 43, 2-(1,1-Dioxido-2,3-dihydro-1,4-benzothiazepin-4(5H)-yl)-N-{[3-(ethylamino)oxetan-3-yl]methyl}-6-methylquinolin-4-amine], the EC50 is 0.017 µM. With `Cc1ccc2nc(N3CCS(=O)(=O)c4cc(Cl)ccc4C3)cc(NCC(O)CO)c2c1` (stereo not drawn) [Example 32-3, 3-{[2-(8-Chloro-1,1-dioxido-2,3-dihydro-1,4-benzothiazepin-4(5H)-yl)-6-methylquinolin-4-yl]amino}propane-1,2-diol], the EC50 amounted to 1.99 µM. In the case of `CCS(=O)(=O)c1ccc2c(c1)CCCN(c1cc(NCCN)c3ccccc3n1)C2` [Example 120-2, N-{2-[7-(Ethylsulfonyl)-1,3,4,5-tetrahydro-2H-2-benzazepin-2-yl]quinolin-4-yl}ethane-1,2-diamine] it was 1.79 µM. In the case of `Cc1ccc2nc(N3CC[S+]([O-])c4ccccc4C3)nc(NC3(CN)COC3)c2c1` (stereo not drawn) [Example 91, N-[3-(Aminomethyl)oxetan-3-yl]-6-methyl-2-(1-oxido-2,3-dihydro-1,4-benzothiazepin-4(5H)-yl)quinazolin-4-amine] it was 0.004 µM. Take `Cc1ccc2nc(N3CCS(=O)(=O)c4ccccc4C3)cc(NC(=O)CN)c2c1` [Example 40-1, N-[2-(1,1-Dioxido-2,3-dihydro-1,4-benzothiazepin-4(5H)-yl)-6-methylquinolin-4-yl]glycinamide]: the EC50 was found to be 0.039 µM.

The molecule `NC1(CNc2cc(N3CCS(=O)(=O)c4ccccc4C3)nc3ccncc23)COC1` [Example 2-10, N-[(3-Aminooxetan-3-yl)methyl]-2-(1,1-dioxido-2,3-dihydro-1,4-benzothiazepin-4(5H)-yl)-1,6-naphthyridin-4-amine] had an EC50 of 0.005 µM.

For the molecule `Cc1ccc2nc(N3CCS(=O)(=O)c4ccc(N5CCN(C(C)C)CC5)cc4C3)cc(NCC3(N)COC3)c2c1` [Example 33-2, N-[(3-Aminooxetan-3-yl)methyl]-2-{1,1-dioxido-7-[4-(propan-2-yl)piperazin-1-yl]-2,3-dihydro-1,4-benzothiazepin-4(5H)-yl}-6-methylquinolin-4-amine], the EC50 is 0.627 µM.

In the case of `NC1(CNc2nc(N3CCSc4ccccc4C3)nc3ccccc23)COC1` [Example 57-1, N-[(3-Aminooxetan-3-yl)methyl]-2-(2,3-dihydro-1,4-benzothiazepin-4(5H)-yl)quinazolin-4-amine], a half-maximal effect (EC50) was put at 0.067 µM. `Cc1ccc2nc(N3CCS(=O)(=O)c4ccccc4C3)cc(C(=O)C3CCNCC3)c2c1` [Example 100, [2-(1,1-Dioxido-2,3-dihydro-1,4-benzothiazepin-4(5H)-yl)-6-methylquinolin-4-yl](piperidin-4-yl)methanone]: the midpoint of the response, the EC50, lay at 9.19 µM.

For `NCC(F)(F)CNc1cc(N2CCS(=O)(=O)c3ccccc3C2)nc2ccc(Cl)cc12` [Example 3-20, N-[6-Chloro-2-(1,1-dioxido-2,3-dihydro-1,4-benzothiazepin-4(5H)-yl)quinolin-4-yl]-2,2-difluoropropane-1,3-diamine], the EC50 stood at 0.507 µM. Regarding `Cc1ccc2nc(N3CCS(=O)(=O)c4ccccc4C3)cc(N[C@@H](C)CO)c2c1` [Example 8-2, (2S)-2-{[2-(1,1-Dioxido-2,3-dihydro-1,4-benzothiazepin-4(5H)-yl)-6-methylquinolin-4-yl]amino}propan-1-ol], the EC50 amounted to 0.817 µM.

As to `Cc1cc2c(NCC3(N)COC3)cc(N3CCS(=O)(=O)c4ccccc4C3)nc2cc1F` [Example 3-24, N-[(3-Aminooxetan-3-yl)methyl]-2-(1,1-dioxido-2,3-dihydro-1,4-benzothiazepin-4(5H)-yl)-7-fluoro-6-methylquinolin-4-amine], the EC50 is 0.021 µM. `Cc1cc2c(NCCN)cc(N3CCS(=O)(=O)c4ccccc4C3)nc2cc1F` [Example 9-24, N-[2-(1,1-Dioxido-2,3-dihydro-1,4-benzothiazepin-4(5H)-yl)-7-fluoro-6-methylquinolin-4-yl]ethane-1,2-diamine] registered an EC50 of 0.024 µM. In the case of `Cc1ccc2nc(N3CCC(F)(F)c4ccccc4C3)cc(NCCN(C)C)c2c1` [Example 111-8, N′-[2-(5,5-Difluoro-1,3,4,5-tetrahydro-2H-2-benzazepin-2-yl)-6-methylquinolin-4-yl]-N,N-dimethylethane-1,2-diamine] it was 0.283 µM; in that of `NCCNc1cc(N2CCCc3ccc(F)cc3C2)nc2ccccc12` [Example 118-7, N-[2-(8-Fluoro-1,3,4,5-tetrahydro-2H-2-benzazepin-2-yl)quinolin-4-yl]ethane-1,2-diamine], 0.166 µM; in that of `Cc1ccc2nc(N3CCS(=O)(=O)c4ccccc4C3)cc(NCC3CCNCC3)c2c1` [Example 3-29, 2-(1,1-Dioxido-2,3-dihydro-1,4-benzothiazepin-4(5H)-yl)-6-methyl-N-(piperidin-4-ylmethyl)quinolin-4-amine], 0.022 µM. In the case of `CC(=O)NCCCNc1cc(N2CCS(=O)(=O)c3ccccc3C2)nc2ccc(C)cc12` [Example 63-3, N-(3-{[2-(1,1-Dioxido-2,3-dihydro-1,4-benzothiazepin-4(5H)-yl)-6-methylquinolin-4-yl]amino}propyl)acetamide] it was 0.007 µM; in that of `Cc1ccc2nc(N3CCS(=O)(=O)c4ccccc4C3)cc(N3C(=O)NCC34COC4)c2c1` [Example 86, 5-[2-(1,1-Dioxido-2,3-dihydro-1,4-benzothiazepin-4(5H)-yl)-6-methylquinolin-4-yl]-2-oxa-5,7-diazaspiro[3.4]octan-6-one], 2.22 µM.

As for `Cc1ccc2nc(N3CCS(=O)(=O)c4ccccc4C3)cc(N3CC[C@@H](O)C3)c2c1` [Example 15-4, (3R)-1-[2-(1,1-Dioxido-2,3-dihydro-1,4-benzothiazepin-4(5H)-yl)-6-methylquinolin-4-yl]pyrrolidin-3-ol], the EC50 came out at 0.257 µM. With `NCC1(CNc2nc(N3CC[S+]([O-])c4ccccc4C3)nc3ccc(C(=O)O)cc23)COC1` (stereo not drawn) [Example 108-1, 4-({[3-(Aminomethyl)oxetan-3-yl]methyl}amino)-2-(1-oxido-2,3-dihydro-1,4-benzothiazepin-4(5H)-yl)quinazoline-6-carboxylic acid], the EC50 is 0.488 µM. In turn, `Cc1ccc2nc(N3CCS(=O)(=O)c4ccccc4C3)cc(NCC(=O)O)c2c1` [Example 9-8, N-[2-(1,1-Dioxido-2,3-dihydro-1,4-benzothiazepin-4(5H)-yl)-6-methylquinolin-4-yl]glycine] came in with an EC50 of 3.48 µM. In the case of `NCCNc1cc(N2CCSc3ccccc3C2)nc2ccc(Cl)cc12` [Example 4-2, N-[6-Chloro-2-(2,3-dihydro-1,4-benzothiazepin-4(5H)-yl)quinolin-4-yl]ethane-1,2-diamine] it was 0.098 µM; in that of `Cc1ccc2nc(N3CCS(=O)(=O)c4ccccc4C3)cc(NCCN3CCS(=O)(=O)CC3)c2c1` [Example 5-1, 2-(1,1-Dioxido-2,3-dihydro-1,4-benzothiazepin-4(5H)-yl)-N-[2-(1,1-dioxidothiomorpholin-4-yl)ethyl]-6-methylquinolin-4-amine], 9.2 µM.
